Measured values taken from ChEMBL document CHEMBL1149054, “Isolation and structure of harzianum A: a new trichothecene from Trichoderma harzianum” (J Nat Prod, 1994).
Active and inactive are the calls of the source. The calls are words filed in the database; no cut-off is given here.

Key:
[1] = Cytotoxicity against BHK cells upto 1 ug/ml; assay type: cell-based, Mesocricetus auratus; conditions: hamster
Escherichia coli = experiment: Antimicrobial activity against Escherichia coli at 1 mg/ml; assay type: functional, organism-based
Micrococcus luteus = experiment: Antimicrobial activity against Micrococcus luteus at 1 mg/ml; assay type: functional, organism-based
Staphylococcus aureus = experiment: Antimicrobial activity against Staphylococcus aureus at 1 mg/ml; assay type: functional, organism-based

Q: For `CC1=C[C@H]2O[C@@H]3C[C@@H](OC(=O)\C=C/C=C/C=C/C(=O)O)[C@](C)([C@@]2(C)CC1)[C@]31CO1` [HARZIANUM A], which Activity [1] is on record?
A: Non-toxic

Q: And the Activity (Escherichia coli)?
A: inactive

Q: What about the Activity (Micrococcus luteus) of the same compound?
A: inactive

Q: What about the Activity (Staphylococcus aureus) of the same compound?
A: inactive
